Data reported in paper PMC5380659, “Unique charge-dependent constraint on collagen recognition by integrin α10β1” (Matrix Biology, 2017).
“Also recorded” adds a separate entry of the source.

Columns and labels:
[1] = test system: collagen-binding integrins; parameters: method as in 3 sources, ref [7], [8] = [7]; PMID 10778855; doi:10.1016/S0092-8674(00)80622-4; 7 Emsley J. Knight C.G. Farndale R.W. Barnes M.J. Liddington R.C. Structural basis of collagen recognition by integrin alpha2beta1 Cell 101 1 2000 47 56 10778855 10.1016/S0092-8674(00)80622-4 || [8]; PMID 16326707; doi:10.1074/jbc.M509818200; 8 Raynal N. Hamaia S.W. Siljander P.R. Maddox B. Peachey A.R. Fernandez R. Foley L.J. Slatter D.A. Jarvis G.E. Farndale R.W. Use of synthetic peptides to locate novel integrin alpha2beta1-binding moti ||| ref [8], [10] = [8]; PMID 16326707; doi:10.1074/jbc.M509818200; 8 Raynal N. Hamaia S.W. Siljander P.R. Maddox B. Peachey A.R. Fernandez R. Foley L.J. Slatter D.A. Jarvis G.E. Farndale R.W. Use of synthetic peptides to locate novel integrin alpha2beta1-binding moti || [10]; PMID 16043429; doi:10.1074/jbc.M502431200; 10 Kim J.K. Xu Y. Xu X. Keene D.R. Gurusiddappa S. Liang X. Wary K.K. Hook M. A novel binding site in collagen type III for the integrins, alpha 1beta 1 and alpha 2beta 1 J. Biol. Chem. 280 2005 32512 ||| ref [11] = [11]; PMID 10986291; doi:10.1074/jbc.M007668200; 11 Xu Y. Gurusiddappa S. Rich R.L. Owens R.T. Keene D.R. Mayne R. Hook A. Hook M. Multiple binding sites in collagen type I for the integrins α1β1 and α2β1 J. Biol. Chem. 275 2000 38981 38989 10986291; conditions: ref [11]; cited from earlier work
From the text: Many related motifs have now been identified using the Collagen Toolkits developed in this laboratory for the purpose. These are libraries of overlapping peptides of 27 amino acids of collagen primary sequence (guest sequence), flanked ...

[2] = test system: human recombinant GST-α10 I domain; assay: Solid-phase binding assay (SPBA) of wild-type α10 I domain; conditions: short THPs, 2 mM Mg^2 +, 1 h, Fig. 4A
Protocol: The α10 I domain was applied to the collagen II and III Toolkits in the presence or absence of Mg^2 +, and was detected using anti-GST, as described in Experimental: data are shown in Fig. 1. The background response is indicated by wells coated with the control peptide, GPP10 (corresponding to the host sequence), or BSA.
(§1) I domain adhesion was determined colorimetrically, as described, here termed solid phase binding assay (SPBA). Peptides were coated at 10 μg/ml for 1 h at 22 °C on Immulon-2 HB 96-well plates (Thermo Life Sciences, Basingstoke, UK), and blocked for 1 h with 200 μl of TBS containing 50 mg/ml bovine serum albumin. Wells were washed four times with 200 μl of the adhesion buffer (TBS with 1 mg/ml bovine serum albumin) before adding 100 μl of adhesion buffer containing 10 μg/ml of recombinant GST I domains in the presence of either 2 mM MgCl2 or EDTA for 1 h at room temperature. Wells were washed five times with 200 μl of adhesion buffer containing MgCl2 or EDTA, before adding 100 μl of adhesion buffer containing the anti-GST-HRP conjugate at 1:10,000 dilution for 1 h at room temperature. After washing, colour was developed using an ImmunoPure TMB Substrate Kit (Pierce) according to the manufacturer's instructions.

[3] = test system: α10β1; assay: Overall recognition by α10β1 (I domain and C2C12-α10β1 cells, summary); conditions: abstract and discussion; I domain and/or C2C12-α10β1 cells
Protocol: as §1
(§2) The mouse myoblast cell line, C2C12, (control and transfectants, C2C12-α1β1, C2C12-α2β1, C2C12-α10β1 or C2C12-α11β1) was maintained in RPMI medium containing 10% fetal bovine serum, 2 mM glutamine, 100 IU/ml penicillin, 100 μg/ml streptomycin, and 2.5 μg/ml amphotericin. Cells were harvested by centrifugation, washed, and suspended at 0.5 × 10^6/ml in Tris-buffered saline supplemented with 5.5 mM glucose and either 2 mM EDTA or 2 mM MgCl2. SPBA was performed as follows: 100 μl of the cell suspension was added to peptide-coated wells [42] at 20 °C for 60 min. Cell adhesion was determined colorimetrically after lysis, using a lactate dehydrogenase (LDH)-based cell detection kit (Roche Diagnostics) according to the supplier's instructions.
(§3) To quantitate C2C12-α10β1 binding to collagen peptides, we used the impedance-based xCELLigence system (Acea) that allows label-free, dynamic monitoring of cell adhesion in real-time. The assay system expresses the adhesion-dependent rise in well impedance in units of cell index (CI), defined as (Rn − Rb) / 15; where Rn is the electrical impedance of each cell-containing well and Rb is the background impedance of the well with medium alone

[4] = test system: C2C12-α10β1 cells; assay: LDH-based SPBA of C2C12-α10β1 cell adhesion; parameters: species or system mouse; conditions: short THPs, 2 mM Mg^2 +, 1 h, Fig. 4B
Protocol: The mouse myoblast cell line, C2C12-α10β1 clone, expresses α10β1 as its sole collagen-binding integrin [16]. To investigate the binding of α10β1 to collagen in a cellular and whole integrin context, therefore, the adhesion of C2C12-α10β1 cells to Toolkits II and III was performed using two different approaches. First, SPBA was used, with lactate dehydrogenase to report the presence of adherent cells, after lysis, as described in Experimental. […] C2C12-α10B1 cells generally bound more prominently to those weaker peptides that supported just-observable binding of free I-domain. This may reflect avidity of the receptor-populated cell surface for the peptide-coated wells, or perhaps up-regulation of integrin affinity following receptor engagement. It is also possible that some cell binding reflects specific indirect interactions. For example, fibronectin, available either by intrinsic expression or from the serum supplement, binds well to II-44, and can also bind integrin αVβ3 [21].
Fig. 2 Binding of α10β1-transfected C2C12 cells to Collagen Toolkits. 96-well plates were coated with peptides as for Fig. 1, then C2C12-α10β1 cells (5 × 10^4 per well) were added and incubated for 1 h in the presence of either 2 mM MgCl2 or 2 mM EDTA as above. A: binding to Toolkit II. B: binding to Toolkit III.
as §2

[5] = test system: α2β1; parameters: method as in 4 sources, ref [8], [10] = [8]; PMID 16326707; doi:10.1074/jbc.M509818200; 8 Raynal N. Hamaia S.W. Siljander P.R. Maddox B. Peachey A.R. Fernandez R. Foley L.J. Slatter D.A. Jarvis G.E. Farndale R.W. Use of synthetic peptides to locate novel integrin alpha2beta1-binding moti || [10]; PMID 16043429; doi:10.1074/jbc.M502431200; 10 Kim J.K. Xu Y. Xu X. Keene D.R. Gurusiddappa S. Liang X. Wary K.K. Hook M. A novel binding site in collagen type III for the integrins, alpha 1beta 1 and alpha 2beta 1 J. Biol. Chem. 280 2005 32512 ||| ref not given ||| ref [4] = [4]; PMID 19693543; doi:10.1007/s00441-009-0834-6; 4 Barczyk M. Carracedo S. Gullberg D. Integrins Cell Tissue Res. 339 1 2010 269 280 19693543 10.1007/s00441-009-0834-6 PMC2784866 ||| ref [12] = [12]; PMID 22654115; doi:10.1074/jbc.M112.353144; 12 Hamaia S.W. Pugh N. Raynal N. Nemoz B. Stone R. Gullberg D. Bihan D. Farndale R.W. Mapping of potent and specific binding motifs, GLOGEN and GVOGEA, for integrin alpha1beta1 using collagen toolkits; conditions: cited from earlier work
[6] = test system: integrin α1β1; parameters: method as in 3 sources, ref [4]; PMID 19693543; doi:10.1007/s00441-009-0834-6; 4 Barczyk M. Carracedo S. Gullberg D. Integrins Cell Tissue Res. 339 1 2010 269 280 19693543 10.1007/s00441-009-0834-6 PMC2784866 ||| ref [12] = [12]; PMID 22654115; doi:10.1074/jbc.M112.353144; 12 Hamaia S.W. Pugh N. Raynal N. Nemoz B. Stone R. Gullberg D. Bihan D. Farndale R.W. Mapping of potent and specific binding motifs, GLOGEN and GVOGEA, for integrin alpha1beta1 using collagen toolkits ||| ref not given; conditions: cited from earlier work
From the text: The collagen-binding integrin family is complete, with four established members, α1β1, α2β1, α10β1 and α11β1. These are highly-conserved, heterodimeric receptors with an important structural feature in common, the presence of an I (inserted) domain which contains the metal ion-dependent adhesion site (MIDAS). The MIDAS is a constellation of electronegative residues at the distal surface of this 200-residue domain that, in the resting, non-ligated state, can co-ordinate a Mg^2 + ion. […] Many related motifs have now been identified using the Collagen Toolkits developed in this laboratory for the purpose. These are libraries of overlapping peptides of 27 amino acids of collagen primary sequence (guest sequence), flanked ... || Why would collagen II differ in this respect?

[7] = test system: C2C12-α10β1 cells; assay: xCELLigence real-time adhesion of C2C12-α10β1 cells; format: cell-based, mouse; conditions: 2.5 × 10^4 cells/well, 2 mM Mg^2 +, over 1 h, Fig. 3A
Protocol: Fig. 3 Binding of α10β1-transfected C2C12 cells to collagens and selected Toolkit peptides. Peptides or collagens were coated on ePlates as described, then cells were added in the presence of 2 mM Mg^2 + or EDTA, and Cell Index value was collected over 1 h. […] B: time courses are shown of adhesion to selected Toolkit peptides or GPP-10.
as §3
Briefly, C2C12 cells were seeded at 2.5 × 10^4 cells/well in an E-plate (Roche Applied Science) pre-coated with peptides as for SPBA, and CI was measured for up to 2 h.

[8] = test system: α10β1; parameters: method as in not given; conditions: ref not given; cited from earlier work
From the text: In the setting of cartilage, collagen III, although enriched in the pericellular environment, is much less abundant than collagen II [22], and its expression increases with age or with th ...

GASGER [integrin motif in collagens I, XXIII]
Ligand of collagen-binding integrins, weak motifs [1]: weak ligands

GLOGER [short triple-helical peptide containing GLOGER]
Binding of α10 I domain to short triple-helical peptides [2]: less well | Recognition by α10β1, summary [3]: binds α10β1 better than GFOGER, second only to GLOGEN; also recorded: α10β1-positive | Adhesion of C2C12-α10β1 cells to short triple-helical peptides [4]: bound strongly

GLSGER [short triple-helical peptide containing GLSGER]
Recognition by α10β1, summary [3]: α10β1-positive | Ligand of collagen-binding integrins, weak motifs [1]: weak ligands | Adhesion of C2C12-α10β1 cells to short triple-helical peptides [4]: bound strongly

GVOGEA [integrin motif in collagen II]
Affinity for α2β1 ([5]; ref [12]): little affinity for α2β1 | Recognition by α10β1, summary [3]: moderately good ligand for α10β1 | Affinity for integrin α1β1 ([6]; ref [12]): moderate ligand

collagen I: intact collagen I
Preferred ligand of α2β1 ([5]; ref [4]): preferred ligand | Cell adhesion to collagens (Cell Index, endpoint) [7]: bound quite well

collagen II: intact collagen II
Reported binding of α10β1 to collagens [8]: binds | Cell adhesion to collagens (Cell Index, endpoint) [7]: bound quite well

collagen IV: intact collagen IV
Reported binding of α10β1 to collagens [8]: better ligand | Preferred ligand of α1β1 ([6]; ref [4]): preferred ligand | Cell adhesion to collagens (Cell Index, endpoint) [7]: better
